In patent US9718828B2 (MERCK SHARP & DOHME CORP., priority 2011, dated 2017):
Read-outs that look alike come from different tables or passages of the source.

Target: Btk enzyme (His-Btk) (Homo sapiens (Human), UniProt Q06187)
Test: Btk enzyme activity, IMAP fluorescence polarization assay (Assay Method A)
[1] = read-out: EC50 Btk activity values - Assay Method A, IMAP-FP, 60 min pre-incubation, 5 μM ATP, class 100-1000 is given as ≧100 nM-<1 μM

Sequence of Btk enzyme (His-Btk) (Q06187 whole entry): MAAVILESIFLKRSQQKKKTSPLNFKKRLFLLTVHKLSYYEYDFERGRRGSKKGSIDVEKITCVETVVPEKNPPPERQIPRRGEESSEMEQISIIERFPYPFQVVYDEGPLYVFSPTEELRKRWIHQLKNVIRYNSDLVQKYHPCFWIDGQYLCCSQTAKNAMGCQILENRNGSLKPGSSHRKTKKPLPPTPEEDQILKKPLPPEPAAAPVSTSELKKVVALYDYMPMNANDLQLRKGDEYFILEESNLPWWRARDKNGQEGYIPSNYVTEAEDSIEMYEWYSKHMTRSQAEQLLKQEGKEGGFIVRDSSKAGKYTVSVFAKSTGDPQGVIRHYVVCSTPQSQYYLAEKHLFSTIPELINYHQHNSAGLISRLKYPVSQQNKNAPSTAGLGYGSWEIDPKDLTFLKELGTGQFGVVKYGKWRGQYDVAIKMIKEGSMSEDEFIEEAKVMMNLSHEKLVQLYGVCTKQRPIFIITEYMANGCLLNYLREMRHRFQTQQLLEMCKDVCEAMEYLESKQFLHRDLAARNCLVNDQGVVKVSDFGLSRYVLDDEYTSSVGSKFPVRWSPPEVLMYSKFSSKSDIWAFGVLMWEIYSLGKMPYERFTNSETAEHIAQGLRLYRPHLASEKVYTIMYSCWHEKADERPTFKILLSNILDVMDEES

Row | Compound | EC50 [1] [nM] | EC50 [nM]
1 | CCNC(=O)N1CCC[C@@H](n2nc(-c3ccc(C(=O)Nc4cc(C(F)(F)F)ccn4)cc3)c3c(N)ncnc32)C1 [Example 268, (R)-3-(4-amino-3-(4-(4-(trifluoromethyl)pyridin-2-ylcarbamoyl)phenyl)-1H-pyrazolo[3,4-d]pyrimidin-1-yl)-N-ethylpiperidine-1-carboxamide] | < 10 | –
2 | Nc1ncnc2c1c(-c1ccc(C(=O)Nc3cc(C(F)(F)F)ccn3)cc1)nn2[C@@H]1CCCN(C(=O)C2CC2)C1 [Example 269, (R)-4-(4-amino-1-(1-(cyclopropanecarbonyl)piperidin-3-yl)-1H-pyrazolo[3,4-d]pyrimidin-3-yl)-N-(4-(trifluoromethyl)pyridin-2-yl)benzamide] | < 10 | –
3 | CC(C)(F)C(=O)N1CCC[C@@H](n2nc(-c3ccc(C(=O)Nc4cc(C(F)(F)F)ccn4)cc3)c3c(N)ncnc32)C1 [Example 270, (R)-4-(4-amino-1-(1-(2-fluoro-2-methylpropanoyl)piperidin-3-yl)-1H-pyrazolo[3,4-d]pyrimidin-3-yl)-N-(4-(trifluoromethyl)pyridin-2-yl)benzamide] | – | 10 to 100
4 | Nc1ncnc2c1c(-c1ccc(C(=O)Nc3cc(C(F)(F)F)ccn3)cc1)nn2[C@@H]1CCCN(C(=O)C(F)(F)F)C1 [Example 274, (R)-4-(4-amino-1-(1-(2,2,2-trifluoroacetyl)piperidin-3-yl)-1H-pyrazolo[3,4-d]pyrimidin-3-yl)-N-(4-(trifluoromethyl)pyridin-2-yl)benzamide] | – | 10 to 100
5 | COCCOCCC(=O)N1CCC[C@@H](n2nc(-c3ccc(C(=O)Nc4cc(C(F)(F)F)ccn4)cc3)c3c(N)ncnc32)C1 [Example 275, (R)-4-(4-amino-1-(1-(3-(2-methoxyethoxy)propanoyl)piperidin-3-yl)-1H-pyrazolo[3,4-d]pyrimidin-3-yl)-N-(4-(trifluoromethyl)pyridin-2-yl)benzamide] | < 10 | –
6 | CSCCC(=O)N1CCC[C@@H](n2nc(-c3ccc(C(=O)Nc4cc(C(F)(F)F)ccn4)cc3)c3c(N)ncnc32)C1 [Example 276, (R)-4-(4-amino-1-(1-(3-(methylthio)propanoyl)piperidin-3-yl)-1H-pyrazolo[3,4-d]pyrimidin-3-yl)-N-(4-(trifluoromethyl)pyridin-2-yl)benzamide] | < 10 | –

Other lines, results leading:

Row | EC50 [1] [nM] | EC50 [nM] | Compound
7 | < 10 | – | CC1(C(=O)N2CCC[C@@H](n3nc(-c4ccc(C(=O)Nc5cc(C(F)(F)F)ccn5)cc4)c4c(N)ncnc43)C2)COC1 [Example 267, (R)-4-(4-amino-1-(1-(3-methyloxetane-3-carbonyl)piperidin-3-yl)-1H-pyrazolo[3,4-d]pyrimidin-3-yl)-N-(4-(trifluoromethyl)pyridin-2-yl)benzamide]
8 | < 10 | – | CCC(=O)N1CCC[C@@H](n2nc(-c3ccc(C(=O)Nc4cc(C(F)(F)F)ccn4)cc3)c3c(N)ncnc32)C1 [Example 271, (R)-4-(4-amino-1-(1-propionylpiperidin-3-yl)-1H-pyrazolo[3,4-d]pyrimidin-3-yl)-N-(4-(trifluoromethyl)pyridin-2-yl)benzamide]
9 | – | 10 to 100 | COCC1(C(=O)N2CCC[C@@H](n3nc(-c4ccc(C(=O)Nc5cc(C(F)(F)F)ccn5)cc4)c4c(N)ncnc43)C2)CCC1 [Example 272, (R)-4-(4-amino-1-(1-(1-(methoxymethyl)cyclobutanecarbonyl)piperidin-3-yl)-1H-pyrazolo[3,4-d]pyrimidin-3-yl)-N-(4-(trifluoromethyl)pyridin-2-yl)benzamide]
10 | < 10 | – | CCOC(=O)N1CCC[C@@H](n2nc(-c3ccc(C(=O)Nc4cc(C(F)(F)F)ccn4)cc3)c3c(N)ncnc32)C1 [Example 273, (R)-ethyl 3-(4-amino-3-(4-(4-(trifluoromethyl)pyridin-2-ylcarbamoyl)phenyl)-1H-pyrazolo[3,4-d]pyrimidin-1-yl)piperidine-1-carboxylate]
11 | < 10 | – | Nc1ncnc2c1c(-c1ccc(C(=O)Nc3cc(C(F)(F)F)ccn3)cc1)nn2[C@@H]1CCCN(C(=O)C2CCC2)C1 [Example 277, (R)-4-(4-amino-1-(1-(cyclobutanecarbonyl)piperidin-3-yl)-1H-pyrazolo[3,4-d]pyrimidin-3-yl)-N-(4-(trifluoromethyl)pyridin-2-yl)benzamide]
